Our source for the IC50 values is patent US20240208968A1, “ALPHA V BETA 6 AND ALPHA V BETA 1 INTEGRIN INHIBITORS AND USES THEREOF” (DiCE Molecules SV, Inc., priority 2021, published 2024).

The structures appear in SMILES notation. Where a name gives a salt, the structure may show the parent alone.

One assay has as its target αvβ6 (Homo sapiens, UniProt P06756+P18564). Nature of the assay: Solid Phase Integrin αvβ6 Assay. The format is binding. The method, boiled down:
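Plates coated with 1 μg/mL recombinant TGFb1-LAP; compounds and αvβ6 (0.2 μg/mL diluted stock) incubated 1 h at room temperature in 2% BSA/TBST with 1 mM MnCl2. Bound integrin detected with streptavidin-HRP and TMB; IC50 from four-parameter logistic fits.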

Another assay addresses αvβ1 (Homo sapiens, UniProt P05556+P06756). Nature of the assay: Solid Phase Integrin αvβ1 Assay. In kind it is binding. In a few lines:
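Wells coated with 1 µg/mL recombinant TGFb1-LAP and blocked with 2% BSA/TBST, 1 mM MnCl2; αvβ1 (added at 0.2 µg/mL) and compound incubated 90 min at room temperature. Bound integrin detected by streptavidin-HRP (20 min) and TMB after Mn-containing washes; IC50 by four-parameter logistic fit.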

Sequence of αvβ6 (P06756 31-992 limits assumed): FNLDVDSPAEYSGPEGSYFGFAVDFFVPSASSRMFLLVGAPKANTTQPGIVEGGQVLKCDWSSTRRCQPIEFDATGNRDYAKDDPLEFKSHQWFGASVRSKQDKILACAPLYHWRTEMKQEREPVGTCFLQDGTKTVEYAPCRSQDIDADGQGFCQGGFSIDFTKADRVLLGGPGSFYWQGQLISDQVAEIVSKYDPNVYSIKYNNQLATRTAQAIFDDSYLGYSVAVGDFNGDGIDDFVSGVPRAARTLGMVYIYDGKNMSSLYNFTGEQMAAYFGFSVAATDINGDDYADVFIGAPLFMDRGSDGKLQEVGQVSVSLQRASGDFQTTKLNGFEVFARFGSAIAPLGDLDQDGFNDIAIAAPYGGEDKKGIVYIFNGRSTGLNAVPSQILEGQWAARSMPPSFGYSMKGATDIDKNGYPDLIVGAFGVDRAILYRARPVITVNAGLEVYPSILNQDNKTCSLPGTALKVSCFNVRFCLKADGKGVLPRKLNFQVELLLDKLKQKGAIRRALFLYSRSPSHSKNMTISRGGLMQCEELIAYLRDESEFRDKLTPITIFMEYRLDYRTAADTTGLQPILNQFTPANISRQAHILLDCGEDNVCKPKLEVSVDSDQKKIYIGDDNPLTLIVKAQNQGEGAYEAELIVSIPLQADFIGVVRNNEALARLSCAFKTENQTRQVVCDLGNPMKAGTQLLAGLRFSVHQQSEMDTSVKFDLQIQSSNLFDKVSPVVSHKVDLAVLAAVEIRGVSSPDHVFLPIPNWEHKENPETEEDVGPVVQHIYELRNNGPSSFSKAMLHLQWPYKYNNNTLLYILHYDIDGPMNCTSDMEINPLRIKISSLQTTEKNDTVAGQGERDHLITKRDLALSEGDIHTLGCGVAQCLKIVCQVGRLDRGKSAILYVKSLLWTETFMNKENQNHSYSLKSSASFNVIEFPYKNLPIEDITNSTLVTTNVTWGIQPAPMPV
Sequence of αvβ6 (P18564 22-707 limits assumed): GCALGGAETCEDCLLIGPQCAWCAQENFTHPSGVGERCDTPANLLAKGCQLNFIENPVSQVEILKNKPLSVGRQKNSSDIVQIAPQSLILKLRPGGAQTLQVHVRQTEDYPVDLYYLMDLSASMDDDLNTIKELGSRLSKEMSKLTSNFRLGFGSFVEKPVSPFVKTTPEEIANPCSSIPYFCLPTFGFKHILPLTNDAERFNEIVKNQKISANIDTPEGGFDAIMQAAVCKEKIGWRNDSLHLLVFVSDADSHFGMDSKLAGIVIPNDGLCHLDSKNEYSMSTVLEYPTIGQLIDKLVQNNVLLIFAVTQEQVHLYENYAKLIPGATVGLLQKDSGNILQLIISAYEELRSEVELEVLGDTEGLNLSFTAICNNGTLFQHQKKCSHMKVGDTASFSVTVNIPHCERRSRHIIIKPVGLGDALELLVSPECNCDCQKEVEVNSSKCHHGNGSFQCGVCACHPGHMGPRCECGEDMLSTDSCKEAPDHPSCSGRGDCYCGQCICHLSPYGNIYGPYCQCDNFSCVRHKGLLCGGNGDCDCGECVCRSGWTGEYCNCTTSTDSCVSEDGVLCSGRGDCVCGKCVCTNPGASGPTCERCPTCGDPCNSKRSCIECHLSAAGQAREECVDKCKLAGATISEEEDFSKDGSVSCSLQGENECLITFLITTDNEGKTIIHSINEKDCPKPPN
Sequence of αvβ1 (P06756 31-992 limits assumed): as the sequence (P06756 31-992 limits assumed) above
Sequence of αvβ1 (P05556 21-728 limits assumed): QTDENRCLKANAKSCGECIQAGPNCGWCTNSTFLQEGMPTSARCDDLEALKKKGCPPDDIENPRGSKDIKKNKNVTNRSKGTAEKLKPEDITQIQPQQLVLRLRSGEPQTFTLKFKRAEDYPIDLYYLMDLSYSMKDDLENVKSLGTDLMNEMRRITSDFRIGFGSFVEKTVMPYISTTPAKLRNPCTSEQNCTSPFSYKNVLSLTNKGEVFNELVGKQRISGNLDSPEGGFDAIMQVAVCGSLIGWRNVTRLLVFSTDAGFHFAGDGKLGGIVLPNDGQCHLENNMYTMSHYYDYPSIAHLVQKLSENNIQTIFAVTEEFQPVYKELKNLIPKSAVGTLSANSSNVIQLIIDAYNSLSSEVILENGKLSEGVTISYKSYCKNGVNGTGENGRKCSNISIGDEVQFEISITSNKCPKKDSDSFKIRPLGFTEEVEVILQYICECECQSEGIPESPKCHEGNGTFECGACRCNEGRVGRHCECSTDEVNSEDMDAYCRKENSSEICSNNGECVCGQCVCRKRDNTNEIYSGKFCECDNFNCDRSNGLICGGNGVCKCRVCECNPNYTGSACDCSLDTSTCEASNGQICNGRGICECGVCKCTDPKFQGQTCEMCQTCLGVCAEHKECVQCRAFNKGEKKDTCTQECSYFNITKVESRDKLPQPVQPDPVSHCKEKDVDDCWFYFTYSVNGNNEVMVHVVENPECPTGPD

Usually IC50 stands for the concentration at which inhibition is half-maximal. Read a high IC50 as lower potency. `O=C(NC1([C@@H](C(=O)O)c2cccc(-c3ccccc3)c2)CC1)[C@@H]1CCCN(CCCc2ccc3c(n2)NCCC3)C1` [Compound 301-B, 2-([1,1′-biphenyl]-3-yl)-2-(1-((R)-1-(3-(5,6,7,8-tetrahydro-1,8-naphthyridin-2-yl)propyl)piperidine-3-carboxamido)cyclopropyl)acetic acid]: the IC50 on αvβ6 and on αvβ1 was above 1000 nM each time.
As to `O=C(NC[C@@H](C(=O)O)c1cccc(C(F)(F)F)c1)[C@@H]1CCCN(CCCc2ccc3c(n2)NCCC3)C1` [Compound 252-A, 3-((R)-1-(3-(5,6,7,8-tetrahydro-1,8-naphthyridin-2-yl)propyl)piperidine-3-carboxamido)-2-(3-(trifluoromethyl)phenyl)propanoic acid], the results for the 50% inhibitory concentration (IC50) against αvβ6 and against αvβ1 were 100 to 1000 nM and below 100 nM, respectively.
Turning to `O=C(N[C@@H](CCO[C@@H]1CCCN(CCCc2ccc3c(n2)NCCC3)C1)C(=O)O)c1c(F)cc(N2CCOC[C@@H]2C(F)(F)F)cc1F` [Compound 466], the IC50 was 100 to 1000 nM on αvβ6 and below 100 nM on αvβ1.
Regarding `O=C(NC[C@H](Nc1cc(C(F)(F)F)ncn1)C(=O)O)[C@@H]1CCCN(CCCc2ccc3c(n2)NCCC3)C1` [Compound 283, (2S)-3-[[(3R)-1-[3-(5,6,7,8-tetrahydro-1,8-naphthyridin-2-yl)propyl]piperidine-3-carbonyl]amino]-2-[[6-(trifluoromethyl)pyrimidin-4-yl]amino]propanoic acid], the IC50 at αvβ6 and against αvβ1 was below 100 nM each time.
Take `C[C@H]1C[C@H](C(=O)NC[C@@H](C(=O)O)c2ccc3ccccc3c2)CN(CCCc2ccc3c(n2)NCCC3)C1` [Compound 643]: the IC50 against αvβ6 and on αvβ1 was below 100 nM throughout.
As to `O=C(O)C[C@@H](NC(=O)[C@@H]1CCCN(CCCc2ccc3c(n2)NCCC3)C1)c1cnc2ccccc2n1` [Compound 374], the IC50 at αvβ6 was below 100 nM; on αvβ1, 100 to 1000 nM.
Take `O=C(O)C[C@@H](CO[C@@H]1CCCN(CCCc2ccc3c(n2)NCCC3)C1)c1cccc(N2C[C@H]3CC[C@@H]2CO3)c1` [Compound 465]: the IC50 against αvβ6 and on αvβ1 was below 100 nM each time.
As to `O=C(CC[C@@H](NC(=O)C12CCC(CC1)CC2)C(=O)O)N[C@@H]1CCN(CCCCc2ccc3c(n2)NCCC3)C1` [Compound 427], the IC50 against αvβ6 and on αvβ1 was above 1000 nM each time.
For the compound `CC(C)(C)OC(=O)N[C@@H](CNC(=O)[C@@H]1CCCN(CCCc2ccc3c(n2)NCCC3)C1)C(=O)O` [Compound 265, (S)-2-((tert-butoxycarbonyl)amino)-3-((R)-1-(3-(5,6,7,8-tetrahydro-1,8-naphthyridin-2-yl)propyl)piperidine-3-carboxamido)propanoic acid], the IC50 against αvβ6 and against αvβ1 was below 100 nM each time.
Turning to `O=C(O)C[C@@H](NC(=O)[C@@H]1CCCN(CCCc2ccc3c(n2)NCCC3)C1)c1cccc2c1CCC2` [Compound 211-B, 3-(2,3-dihydro-1H-inden-4-yl)-3-((R)-1-(3-(5,6,7,8-tetrahydro-1,8-naphthyridin-2-yl)propyl)piperidine-3-carboxamido)propanoic acid], the IC50 against αvβ6 is 100 to 1000 nM; against αvβ1, above 1000 nM.
`O=C(O)[C@H](CCO[C@H]1CCCN(CCCc2ccc3c(n2)NCCC3)C1)Nc1ncnc2ccccc12` [Compound 446]: the IC50 is below 100 nM on αvβ6 and 100 to 1000 nM against αvβ1.
For `O=C(NC[C@@H](C(=O)O)c1cnc2c(ccn2CC2CC2)c1)[C@@H]1CCCN(CCCc2ccc3c(n2)NCCC3)C1` [Compound 326] the same measures were below 100 nM and below 100 nM.
For `C[C@@H]1OCCN(c2cccc([C@H](CC(=O)O)NC(=O)[C@@H]3CCCN(CCCc4ccc5c(n4)NCCC5)C3)c2)[C@@H]1C` [Compound 583] the same measures were below 100 nM and below 100 nM.
For `O=C(O)[C@@H](CCO[C@@H]1CCCN(CCCc2ccc3c(n2)NCCC3)C1)c1ccc(F)c(-c2ccccc2)c1` [Compound 485] the same measures were above 1000 nM and above 1000 nM.
As to `CC1(C)CN(c2cccc([C@H](CC(=O)O)NC(=O)[C@@H]3CCCN(CCCc4ccc5c(n4)NCCC5)C3)c2)CC(C)(C)C1` [Compound 587], the IC50 against αvβ6 and on αvβ1 was below 100 nM in each case.
With `O=C(O)C[C@H](NC(=O)[C@@H]1CCCN(CCCc2ccc3c(n2)NCCC3)C1)c1cccc(Br)c1` [Compound 205, (S)-3-(3-bromophenyl)-3-((R)-1-(3-(5,6,7,8-tetrahydro-1,8-naphthyridin-2-yl)propyl)piperidine-3-carboxamido)propanoic acid hydrochloride], the IC50 at αvβ6 and on αvβ1 was below 100 nM throughout.
In the case of `O=C(O)C[C@@H](CC(=O)N[C@@H]1CCN(CCCCc2ccc3c(n2)NCCC3)C1)c1ccccc1` [Compound 414], the IC50 on αvβ6 was above 1000 nM; against αvβ1 it was below 100 nM.
For `CNC(=O)c1cccc(CNC(=O)[C@@H]2CCCC[C@H]2C(=O)N[C@@H](CNC(=O)[C@@H]2CCCN(CCCc3ccc4c(n3)NCCC4)C2)C(=O)O)c1` [Compound 266, (S)-2-((1R,2R)-2-((3-(methylcarbamoyl)benzyl)carbamoyl)cyclohexane-1-carboxamido)-3-((R)-1-(3-(5,6,7,8-tetrahydro-1,8-naphthyridin-2-yl)propyl)piperidine-3-carboxamido)propanoic acid] the same measures were below 100 nM and below 100 nM.
For `O=C(O)C[C@H](NC(=O)[C@@H]1CCCN(CCCc2ccc3c(n2)NCCC3)C1)c1ccc2ccccc2c1` [Compound 207, (S)-3-(naphthalen-2-yl)-3-((R)-1-(3-(5,6,7,8-tetrahydro-1,8-naphthyridin-2-yl)propyl)piperidine-3-carboxamido)propanoic acid hydrochloride], in that order: 100 to 1000 nM and 100 to 1000 nM.
As for `O=C(NC[C@H](NC(=O)[C@@H]1CCCC[C@H]1C(=O)N1CCCC1)C(=O)O)[C@@H]1CCCN(CCCc2ccc3c(n2)NCCC3)C1` [Compound 264, (S)-2-((1R,2R)-2-(pyrrolidine-1-carbonyl)cyclohexane-1-carboxamido)-3-((R)-1-(3-(5,6,7,8-tetrahydro-1,8-naphthyridin-2-yl)propyl)piperidine-3-carboxamido)propanoic acid], the half-inhibitory concentration (IC50) at αvβ6 and against αvβ1 was below 100 nM throughout.
As for `O=C(O)C[C@H](NC(=O)[C@@H]1CCCN(CCCc2ccc3c(n2)NCCC3)C1)c1ccc2nccnc2c1` [Compound 215-A, 3-(quinoxalin-6-yl)-3-((R)-1-(3-(5,6,7,8-tetrahydro-1,8-naphthyridin-2-yl)propyl)piperidine-3-carboxamido)propanoic acid], the IC50 against αvβ6 and on αvβ1 was below 100 nM throughout.
In the case of `O=C(O)C[C@H](NC[C@@H]1CCCN(CCCc2ccc3c(n2)NCCC3)C1)c1cccc(Br)c1` [Compound 531], the IC50 on αvβ6 and on αvβ1 was above 1000 nM in each case.
In the case of `O=C(NC[C@H](Nc1nc2ccccc2s1)C(=O)O)[C@@H]1CCCN(CCCc2ccc3c(n2)NCCC3)C1` [Compound 281, (2S)-2-(1,3-benzothiazol-2-ylamino)-3-[[(3R)-1-[3-(5,6,7,8-tetrahydro-1,8-naphthyridin-2-yl)propyl]piperidine-3-carbonyl]amino]propanoic acid], the IC50 against αvβ6 and against αvβ1 was below 100 nM throughout.
For the compound `C[C@@H]1CCN(CCCc2ccc3c(n2)NCCC3)C[C@@H]1C(=O)N[C@@H](CC(=O)O)c1ccccc1` [Compound 551], the IC50 was below 100 nM at αvβ6 and 100 to 1000 nM against αvβ1.
For `O=C(O)[C@@H](CCO[C@@H]1CCCN(CCCc2ccc3c(n2)NCCC3)C1)NC(=O)C12CCC(CC1)CC2` [Compound 331], in that order: below 100 nM and below 100 nM.
For `O=C(O)[C@H](CCO[C@@H]1CCCN(CCCc2ccc3c(n2)NCCC3)C1)c1cccc(-c2ccccc2)c1` [Compound 329] the same measures were above 1000 nM and above 1000 nM.
For `O=C(O)CC(NC(=O)[C@@H]1CCCN(CCCc2ccc3c(n2)NCCC3)C1)c1cnn(-c2ccccc2)c1` (stereo partly drawn) [Compound 233, 3-(1-phenyl-1H-pyrazol-4-yl)-3-((R)-1-(3-(5,6,7,8-tetrahydro-1,8-naphthyridin-2-yl)propyl)piperidine-3-carboxamido)propanoic acid hydrochloride], in that order: below 100 nM and below 100 nM.
Take `O=C(N[C@H](CCO[C@@H]1CCCN(CCCc2ccc3c(n2)NCCC3)C1)C(=O)O)c1c(F)cc(N2CCOC[C@@H]2C(F)(F)F)cc1F` [Compound 494]: the IC50 against αvβ6 and against αvβ1 was above 1000 nM throughout.
For the compound `C[C@H]1C[C@H](C(=O)NC[C@@H](C(=O)O)c2cccc(-c3ccccc3)c2)CN(CCCc2ccc3c(n2)NCCC3)C1` [Compound 644], the IC50 at αvβ6 and on αvβ1 was 100 to 1000 nM throughout.
For the compound `O=C(O)[C@@H](CCO[C@@H]1CCCN(Cc2ccc3c(n2)NCCC3)C1)NC(=O)C12CCC(CC1)CC2` [Compound 381], the IC50 against αvβ6 and against αvβ1 was below 100 nM throughout.
With `O=C(O)C[C@H](CC[C@@H]1CCCN(CCCc2ccc3c(n2)NCCC3)C1)c1ccccc1` [Compound 298-B, 3-phenyl-5-((R)-1-(3-(5,6,7,8-tetrahydro-1,8-naphthyridin-2-yl)propyl)piperidin-3-yl)pentanoi c acid], the IC50 on αvβ6 and on αvβ1 was below 100 nM each time.
Regarding `C[C@H]1C[C@@H](C(=O)NC[C@H](C(=O)O)c2cccc(-c3ccccc3)c2)CN(CCCc2ccc3c(n2)NCCC3)C1` [Compound 631], the IC50 against αvβ6 and against αvβ1 was below 100 nM each time.
In the case of `CC1(C)CN(c2cc([C@@H](CO[C@@H]3CCCN(CCCc4ccc5c(n4)NCCC5)C3)CC(=O)O)ccc2F)CCO1` [Compound 578], the IC50 against αvβ6 and on αvβ1 was below 100 nM throughout.
